{
  "source": "paper PMC3703888",
  "about": "“Integration of Different “-omics” Technologies Identifies Inhibition of the IGF1R-Akt-mTOR Signaling Cascade Involved in the Cytotoxic Effect of Shikonin against Leukemia Cells” (Evidence-based Complementary and Alternative Medicine : eCAM, 2013)",
  "key": {"U937 cells [1]": {"test_system": "U937 cells", "assay": "miRNA microarray", "assay_type": "cell-based, human", "conditions": "shikonin at IC50 concentration, 24 h", "experimental": "miRNA from U937 cells after 24 h of treatment with shikonin at IC50 concentration was isolated using miRNeasy Kit from Qiagen (Hilden, Germany) according to the manufacture's instruction. The quality of miRNA was checked by gel analysis using the Small RNA Nano chip assay on an Agilent 2100 Bioanalyzer (Agilent Technologies GmbH, Germany). The miRNA microarray was performed at the Institute for Molecular Biology (IMB). Microarray experiments were performed in duplicates for treated and untreated samples. Human miRNA microarray chips (8 × 60 K, Agilent Technologies) were used. Probe labeling and hybridization were carried out following the miRNA microarray system with miRNA complete labeling and hyb kit protocol (Agilent Technologies). Briefly, extracted RNA was treated with phosphatase. Dephosphorylated RNA was fluorescently labeled by ligation of Cyanine 3-pCp molecules to the 3′ end of RNA molecules using Agilent's miRNA Complete Labeling and Hyb Kit. The labeled RNA was desalted and hybridized for 20 hours at 55°C and 20 rpm. Microarray slides were washed and scanned with Agilent Microarray Scanning system. Images were analyzed and data were extracted, background subtracted, and normalized using the standard procedures of Agilent Feature Extraction Software. The expression data obtained was filtered with Chipster data analysis platform. These steps include filtering of miRNAs by two times standard deviation of deregulated genes and a subsequent assessment of significance using empirical Bayes t-test (P < 0.05)."}, "U937 cells [2]": {"test_system": "U937 cells", "assay": "mRNA microarray", "assay_type": "cell-based, human", "conditions": "shikonin at IC50 concentration, 24 h vs DMSO", "experimental": "Total RNA from U937 cells after 24 h of treatment with shikonin at IC50 concentration or DMSO solvent control was isolated using RNeasy Kit from Qiagen (Hilden, Germany) according to the manufacture's instruction. The quality of total RNA was checked by gel analysis using the total RNA Nano chip assay on an Agilent 2100 Bioanalyzer (Agilent Technologies GmbH, Berlin, Germany). Only samples with RNA index values greater than 9.3 were selected for expression profiling. Microarray experiments were performed in duplicates for treated and untreated samples. Biotin-labeled cRNA samples for hybridization on Illumina Human Sentrix-HT12 Bead Chip arrays (Illumina, Inc.) were prepared according to Illumina's recommended sample labeling procedure based on the modified Eberwine protocol. Biotin-16-UTP was purchased from Roche Applied Science (Penzberg, Germany). The cRNA was column purified with TotalPrep RNA Amplification Kit and eluted in 60 μL of water. Quality of cRNA was controlled using the RNA Nano Chip Assay on an Agilent 2100 Bioanalyzer and spectrophotometrically quantified (NanoDrop). Hybridization was also performed according the manufacturer's recommendations. Microarray scanning was done using a Beadstation array scanner, setting adjusted to a scaling factor of 1 and PMT settings at 430. Data was extracted for each bead individually, and outliers were removed when the MAD (median absolute deviation) was greater than 2.5. Data analysis was performed by using the quantile normalization algorithm without background subtraction, and differentially regulated genes were defined by calculating the standard deviation differences of a given probe in a one-by-one comparison of samples or groups. The expression data obtained was filtered with Chipster data analysis platform. These steps include filtering of genes by two times standard deviation of deregulated genes and a subsequent assessment of significance using empirical Bayes t-test (P < 0.05)."}, "p-Akt": {"test_system": "p-Akt", "assay": "FlowCellect PI3K-mTOR signaling cascade assay (flow cytometry), p-Akt", "assay_type": "cell-based", "conditions": "24 h", "source_text": "The FlowCellect PI3K-mTOR signaling cascade assay kit (Merck Millipore, Germany) was used to analyze the effect of shikonin on the PI3K-mTOR signaling pathway. The assay is based on two directly conjugated phospho-specific signaling antibodies against phosphorylated Akt and phosphorylated ribosomal S6 protein, which are both important signaling nodes of the mTOR cascade. The phosphorylation of Akt is indicative of the upstream PI3K signaling, marking the cells initiation into proliferation or cell survival. Phosphorylated-ribosomal S6 protein is indicative of downstream mTOR and p70S6K signaling leading to protein translation. The assay was performed according to the manufacture's protocol. Briefly, 1.5 × 10^6 U937 cells were treated with 0.3 μM shikonin or DMSO solvent control and incubated for 24 h. Subsequently, cells were fixed on ice for 20 min using the supplied fixation buffer. After fixation, cells were washed twice and treated with permeabilization buffer on ice for 20 min. After two further washing steps, cells were resuspended in a final volume of 90 μL assay buffer and incubated with 5 μL 20x anti-phospho-ribosomal protein S6 (Ser235) PerCP conjugated monoclonal antibody and 5 μL 20x anti-phospho-Akt1/PKBα (Ser473) Alexa Fluor 488 conjugated monoclonal antibody in the dark on ice for one hour. After antibody incubation, cells were centrifuged and resuspended in 500 μL assay buffer. Subsequently, cells were measured in a LSR-Fortessa FACS analyzer (Becton-Dickinson, Germany) and shikonin fluorescence was compensated for the respective channels. For each sample, 1 × 10^4 cells were counted. The PerCP signal was measured with 488 nm excitation and detected using a 670/30 nm bandpass filter. The Alexa Fluor 488 signal was analyzed with 488 nm excitation and detected using a 530/30 nm bandpass filter. All parameters were plotted on a logarithmic scale. Cytographs were analyzed using FlowJo software (Celeza, Switzerland). All experiments were performed at least in triplicate. Student's t-test was used for statistical analysis."}, "EGFR": {"test_system": "EGFR", "parameters": "method as in PMID 14568164", "conditions": "previous studies ref 24; cited from earlier work"}, "[3]": {"conditions": "cytograph p-Akt / p-ribosomal protein S6, U937 cells, 0.3 μM"}},
  "note": "“Also recorded” adds a separate entry of the source.",
  "data": [
    {"smiles": "CC(C)=CC[C@@H](O)C1=CC(=O)c2c(O)ccc(O)c2C1=O", "note": "[shikonin]", "values": [
      {"measurement": "FC miRNA miR-19b-2-5p", "setting": "U937 cells [1]", "result": "+5.2"},
      {"measurement": "FC miRNA miR-20b-3p", "setting": "U937 cells [1]", "result": "+3.7"},
      {"measurement": "FC miRNA miR-30a-3p", "setting": "U937 cells [1]", "result": "+2.9"},
      {"measurement": "FC miRNA miR-33b-5p", "setting": "U937 cells [1]", "result": "+3.1"},
      {"measurement": "FC miRNA miR-92a-3p", "setting": "U937 cells [1]", "result": "+2.7"},
      {"measurement": "FC miRNA miR-155-3p", "setting": "U937 cells [1]", "result": "+3.4"},
      {"measurement": "FC miRNA miR-181a-2-3p", "setting": "U937 cells [1]", "result": "+3.2"},
      {"measurement": "FC miRNA miR-193b-3p", "setting": "U937 cells [1]", "result": "+2.7"},
      {"measurement": "FC miRNA miR-223-5p", "setting": "U937 cells [1]", "result": "+2.7"},
      {"measurement": "FC miRNA miR-513a-5p", "setting": "U937 cells [1]", "result": "−4.7"},
      {"measurement": "FC miRNA miR-630", "setting": "U937 cells [1]", "result": "−5.1"},
      {"measurement": "FC miRNA miR-638", "setting": "U937 cells [1]", "result": "−6.1"},
      {"measurement": "FC miRNA miR-1185-5p", "setting": "U937 cells [1]", "result": "−5.2"},
      {"measurement": "FC miRNA miR-1207-5p", "setting": "U937 cells [1]", "result": "−6.3"},
      {"measurement": "FC miRNA miR-1246", "setting": "U937 cells [1]", "result": "−6.0"},
      {"measurement": "FC miRNA miR-1290", "setting": "U937 cells [1]", "result": "−6.2"},
      {"measurement": "FC miRNA miR-1915-3p", "setting": "U937 cells [1]", "result": "−13.8"},
      {"measurement": "FC miRNA miR-2861", "setting": "U937 cells [1]", "result": "−9.8"},
      {"measurement": "FC miRNA miR-3907", "setting": "U937 cells [1]", "result": "+2.8"},
      {"measurement": "FC miRNA miR-4299", "setting": "U937 cells [1]", "result": "−30.6"},
      {"measurement": "FC mRNA ACTB (Actin, cytoplasmic 1)", "setting": "U937 cells [2]", "result": "−6.8"},
      {"measurement": "FC mRNA ACTG1 (Actin, cytoplasmic 2)", "setting": "U937 cells [2]", "result": "−11.9"},
      {"measurement": "FC mRNA ALDOA (Fructose-bisphosphate aldolase A)", "setting": "U937 cells [2]", "result": "−17.6"},
      {"measurement": "FC mRNA ANXA1 (Annexin A1)", "setting": "U937 cells [2]", "result": "+4.1"},
      {"measurement": "FC mRNA ARPC1B (Actin-related protein 2/3 complex subunit 1B)", "setting": "U937 cells [2]", "result": "−7.8"},
      {"measurement": "FC mRNA CCL2 (C-C motif chemokine 2)", "setting": "U937 cells [2]", "result": "+4.2"},
      {"measurement": "FC mRNA CCT7 (T-complex protein 1 subunit eta)", "setting": "U937 cells [2]", "result": "−7.8"},
      {"measurement": "FC mRNA ERP29 (Endoplasmic reticulum resident protein 29)", "setting": "U937 cells [2]", "result": "−6.0"},
      {"measurement": "FC mRNA HMOX1 (Heme oxygenase 1)", "setting": "U937 cells [2]", "result": "+4.1"},
      {"measurement": "FC mRNA HSPD1 (60 kDa heat shock protein, mitochondrial)", "setting": "U937 cells [2]", "result": "−6.6"},
      {"measurement": "FC mRNA JUN (Transcription factor AP-1)", "setting": "U937 cells [2]", "result": "+3.2"},
      {"measurement": "FC mRNA LY96 (Lymphocyte antigen 96)", "setting": "U937 cells [2]", "result": "+4.5"},
      {"measurement": "FC mRNA MAFB (Transcription factor MafB)", "setting": "U937 cells [2]", "result": "+3.5"},
      {"measurement": "FC mRNA MLLT11 (Protein AF1q)", "setting": "U937 cells [2]", "result": "+6.2"},
      {"measurement": "FC mRNA NCF1 (Neutrophil cytosol factor 1)", "setting": "U937 cells [2]", "result": "−5.9"},
      {"measurement": "FC mRNA PSMC4 (26S protease regulatory subunit 6B)", "setting": "U937 cells [2]", "result": "−7.7"},
      {"measurement": "FC mRNA S100A8 (Protein S100-A8)", "setting": "U937 cells [2]", "result": "+4.7"},
      {"measurement": "FC mRNA S100A9 (Protein S100-A9)", "setting": "U937 cells [2]", "result": "+4.2"},
      {"measurement": "FC mRNA SLC39A3 (Zinc transporter ZIP3)", "setting": "U937 cells [2]", "result": "−6.2"},
      {"measurement": "FC mRNA VIM (Vimentin)", "setting": "U937 cells [2]", "result": "+4.2"},
      {"measurement": "Phosphorylation of Akt", "setting": "p-Akt; U937 cells, 0.3 μM shikonin", "result": "significantly inhibits; also recorded: significantly decreased"},
      {"measurement": "Cells in quadrant Q1", "setting": "p-Akt; [3]", "result": 27.2, "unit": "%"},
      {"measurement": "Cells in quadrant Q2", "setting": "p-Akt; [3]", "result": 61.4, "unit": "%"},
      {"measurement": "Cells in quadrant Q3", "setting": "p-Akt; [3]", "result": 1.10, "unit": "%"},
      {"measurement": "Cells in quadrant Q4", "setting": "p-Akt; [3]", "result": 10.3, "unit": "%"},
      {"measurement": "EGFR phosphorylation", "setting": "EGFR", "result": "inhibits EGFR phosphorylation"}
    ]}
  ]
}
